According to patent US12721835B2, “Anticoccidial composition comprising violacein, and use thereof” (CJ CHEILJEDANG CORPORATION, priority 2020, dated 2026):

What was measured:
Assay type in all cases: cell-based
[1] = tested on: Eimeria maxima; assay: Protozoan (sporozoite) direct killing effect; details: tested 1 to 500 ppm, vs PBS control
Description: In the present example, protozoan (sporozoite) direct killing ability evaluation was conducted against 3 representative Eimeria kinds known to be infected in most farms (E. tenella, E. acervulina, E. maxima).
A certain amount of oocysts of each coccidial protozoan was put in a tube containing glass beads and pulverized, and then to remove the crushed oocyst cell wall and other debris, internal sporocysts were purified using the percoll density gradient, and washed with PBS solution. A reagent comprising sodium taurocholic acid (Sigma aldrich, USA) and trypsin (Gibco, USA), respectively, was treated to sporocysts of Eimeria tenella, Eimeria acervulina and Eimeria maxima for excystation of the internal sporozoites, and they were incubated, and then they were washed with PBS solution once and the protozoa were obtained.
After reacting the violacein and anticoccidial agents, salinomycin, diclazuril and gallic acid (hereinafter, material) with 3 kinds of Eimeria protozoa at various concentrations of 1 to 500 ppm, respectively, only alive protozoa (sporozoites) were counted through microscopic observation. […]

[2] = tested on: Eimeria tenella; assay: Intracellular protozoan propagation inhibition in MDBK cells (ITS-1 PCR); details: read-out: Intracellular protozoan propagation inhibitory effect (%)
Description: (§1) In the present example, using MDBK cell line which is a representative animal cell known to cause Eimeria infection and propagation, the inhibition ability of intracellular protozoan invasion and intracellular protozoal propagation of the violacein was investigated.
100,000 MDBK cells (purchased from ATCC) were aliquoted in a 24-well plate, and then incubated at a temperature of 37° C. for 12 hours. The protozoan of Eimeria tenella was obtained similar to the method of Example 3 above. 200,000 protozoa per one well were added to wells in which cells were aliquoted, and cultured at a temperature of 41° C. for 24 hours, and then the cells were washed using PBS solution twice to remove protozoa which were not attached to the cells. Each material (violacein and anticoccidial agents, salinomycin, diclazuril and gallic acid) was treated to the cells by concentration, and further cultured at a temperature of 41° C. for 24 hours. A negative control group is a MDBK cell infected by protozoa, and a positive control group means a group in which salinomycin and diclazuril solution was incubated with the Eimeria tenella protozoan. After removing the cells and protozoa inside the cells through pipetting, DNA was extracted from the cells, and PCR was performed using E. tenella ITS-1 (Internal transcribed spacer-1) gene-specific primers. The sequences of the used primers were described in Table 9 above.
The intracellular protozoan propagation inhibition rate (%) through treatment of the material was calculated by comparing Ct values in the material treatment groups compared to the negative control group, and the result was shown in FIG. 3 and Table 10.

[3] = tested on: Eimeria tenella; assay: Cell invasion inhibition of protozoa in MDBK cells (ITS-1 PCR); details: read-out: Cell invasion inhibitory effect of protozoa (%)
Description: as §1
100,000 MDBK cells (purchased from ATCC) were aliquoted in a 24-well plate, and then incubated at a temperature of 37° C. for 12 hours. The protozoan of Eimeria tenella was obtained similar to the method of Example 3 above. 200,000 protozoa per one well were added to wells in which cells were aliquoted, and each material (violacein and anticoccidial agents, salinomycin, diclazuril and gallic acid) was treated to the cells by concentration, and cultured at a temperature of 41° C. for 24 hours. A negative control group is a MDBK cell infected by protozoa of Eimeria tenella, and a positive control group means a group in which salinomycin, diclazuril or gallic acid solution was incubated with the Eimeria tenella protozoan. […] After removing the cells and protozoa inside the cells through pipetting, DNA was extracted from the cells, and PCR was performed using E. tenella ITS-1 (Internal transcribed spacer-1) gene-specific primers. The sequences of the used primers were described in Table 9 below.
Ct values before/after washing for each material were compared and corrected with the ΔCt value of the negative control group to calculate the cell invasion inhibition rate (%) of the protozoa through treatment of each material, and the result was shown in FIG. 3 and Table 10 below.

[4] = tested on: Eimeria maxima (E. maxima) protozoa; assay: Heat resistance of violacein: protozoal death rate after heat exposure
Description: In the present example, the heat resistance of the violacein was to be evaluated. […] 200,000 Eimeria maxima (E. maxima) protozoa were reacted to the violacein at various concentrations of 0.1 to 100 ppm at a temperature of 41° C. for 4 hours, and the protozoal death rate (%) was measured by the similar method to Example 3 above, and this was shown in FIG. 5 and Table 12. In Table 12 below, the control group means a violacein solution without treating the high temperature condition, and the protozoa alone means a group to which violacein was not treated.

With CC[C@@H](C(=O)[C@@H](C)[C@@H](O)[C@H](C)[C@@H]1O[C@@H]([C@@H](CC)C(=O)O)CC[C@@H]1C)[C@H]1O[C@]2(C=C[C@@H](O)[C@]3(CC[C@@](C)([C@H]4CC[C@](O)(CC)[C@H](C)O4)O3)O2)[C@H](C)C[C@@H]1C [Salinomycin, salinomycin, reference compound] the “Minimum concentration for killing 50% protozoa (sporozoites) (ppm)” value [1] was 500 ppm, the inhibition at 5 ppm ([2]; MDBK, 24 h) was 32.2% and the inhibition at 10 ppm ([2]; MDBK, 24 h) was 34.8%. It also gave an inhibition at 5 ppm ([3]; MDBK, 24 h) of 50.1% and an inhibition at 10 ppm ([3]; MDBK, 24 h) of 56.4%.

With O=C1N=c2ccccc2=C1c1cc(-c2c[nH]c3ccc(O)cc23)[nH]c1O [Violacein, 3-(2-(5-Hydroxyindol-3-yl)-5-oxo-2-pyrrolin-4-ylidene)-2-indolinone] the “Minimum concentration for killing 50% protozoa (sporozoites) (ppm)” value [1] was 5 ppm, the “Death rate according to violacein treatment condition” value (shortened to “Death rate according”) ([4]; 85° C., 10 min, 0.1 ppm) was 62% and the “Death rate according” value ([4]; 85° C., 10 min, 1 ppm) was 89%. For the same compound, the “Death rate according” value ([4]; 85° C., 10 min, 10 ppm) was 99%, the “Death rate according” value ([4]; 85° C., 10 min, 100 ppm) was 100% and the “Death rate according” value ([4]; 90° C., 10 min, 0.1 ppm) was 65%. For the same compound, the “Death rate according” value ([4]; 90° C., 10 min, 1 ppm) was 88%, the “Death rate according” value ([4]; 90° C., 10 min, 10 ppm) was 99% and the “Death rate according” value ([4]; 90° C., 10 min, 100 ppm) was 100%. The “Death rate according” value ([4]; 95° C., 10 min, 0.1 ppm) was 69%, the “Death rate according” value ([4]; 95° C., 10 min, 1 ppm) was 90% and the “Death rate according” value ([4]; 95° C., 10 min, 10 ppm) was 99%. For the same compound, the “Death rate according” value ([4]; 95° C., 10 min, 100 ppm) was 100%, the “Death rate according” value ([4]; Control group (no high temperature), 0.1 ppm) was 64% and the “Death rate according” value ([4]; Control group (no high temperature), 1 ppm) was 85%. For the same compound, the “Death rate according” value ([4]; Control group (no high temperature), 10 ppm) was 100%, the “Death rate according” value ([4]; Control group (no high temperature), 100 ppm, 41° C. 4 hours) was 100% and the “Heat resistance (killing efficacy after high temperature)” value ([4]; high temperature (80 to 95° C.), 10 minutes) was “the protozoal killing efficacy of violacein did not appear”. For the same compound, the inhibition at 0.5 ppm ([2]; MDBK cells, 0.5 ppm, treated after invasion, 24 hours) was 53.7%, the inhibition at 1 ppm ([2]; MDBK cells, 1 ppm, treated after invasion, 24 hours) was 45.8% and the inhibition at 0.5 ppm ([3]; MDBK cells, 0.5 ppm, 41° C. 24 hours) was 59.5%. The inhibition at 1 ppm ([3]; MDBK cells, 1 ppm, 41° C. 24 hours) was 78.6%.
